{"source": "PubChem BioAssay AID1963423", "about": "(Molecular Pharmacology Branch, DTP, NCI, 2024);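 further: spheroids exposed to agents for 7 days starting day 3 after seeding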;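 on viability, T/C: percent of DMSO vehicle control viability with 100% = vehicle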", "test_system": "439559-082-T-J2-PDC complex spheroid growth", "test": "Anticancer human tumor 439559-082-T-J2-PDC patient-derived colon adenocarcinoma cell line growth inhibition [Asc]", "conditions": "for IC50: curve of first compound; for viability, T/C: stronger effect = lower value", "method_in_brief": "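Complex spheroids combining tumor cells with HUVEC endothelial cells and human MSCs, at 37 degrees C, 5% CO2; agents tested alone or combined, half-log dilutions from at or near clinical Cmax, or 10 microM if Cmax unknown.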", "key": {"[1]": {"conditions": "second compound 0.00316 µM, first compound 0.0316 µM"}, "[2]": {"conditions": "second compound 0.00316 µM, first compound 0.1 µM"}, "[3]": {"conditions": "second compound 0.00316 µM, first compound 0.316 µM"}, "[4]": {"conditions": "second compound 0.00316 µM, first compound 1 µM"}, "[5]": {"conditions": "second compound 0.01 µM, first compound 0.0316 µM"}, "[6]": {"conditions": "second compound 0.01 µM, first compound 0.1 µM"}, "[7]": {"conditions": "second compound 0.01 µM, first compound 0.316 µM"}, "[8]": {"conditions": "second compound 0.01 µM, first compound 1 µM"}, "[9]": {"conditions": "second compound 0.0316 µM, first compound 0.0316 µM"}, "[10]": {"conditions": "second compound 0.0316 µM, first compound 0.1 µM"}, "[11]": {"conditions": "second compound 0.0316 µM, first compound 0.316 µM"}, "[12]": {"conditions": "second compound 0.0316 µM, first compound 1 µM"}, "[13]": {"conditions": "second compound 0.1 µM, first compound 0.0316 µM"}, "[14]": {"conditions": "second compound 0.1 µM, first compound 0.1 µM"}, "[15]": {"conditions": "second compound 0.1 µM, first compound 0.316 µM"}, "[16]": {"conditions": "second compound 0.1 µM, first compound 1 µM"}, "[17]": {"conditions": "second compound 0.316 µM, first compound 0.0316 µM"}, "[18]": {"conditions": "second compound 0.316 µM, first compound 0.1 µM"}, "[19]": {"conditions": "second compound 0.316 µM, first compound 0.316 µM"}, "[20]": {"conditions": "second compound 0.316 µM, first compound 1 µM"}, "[21]": {"conditions": "second compound 1 µM, first compound 0.0316 µM"}, "[22]": {"conditions": "second compound 1 µM, first compound 0.1 µM"}, "[23]": {"conditions": "second compound 1 µM, first compound 0.316 µM"}, "[24]": {"conditions": "second compound 1 µM, first compound 1 µM"}}, "data": [{"smiles": "C=CC(=O)N1CCN(c2nc(=O)n(-c3c(C)ccnc3C(C)C)c3nc(-c4c(O)cccc4F)c(F)cc23)C(C)C1", "note": "(centres undefined) + CNC(C)C(=O)NC1CN(S(=O)(=O)c2cccc(S(=O)(=O)N3CCC4CCC(C(=O)NC(c5ccccc5)c5ccccc5)N4C(=O)C(NC(=O)C(C)NC)C3)c2)CCC2CCC(C(=O)NC(c3ccccc3)c3ccccc3)N2C1=O", "values": [{"measurement": "IC50", "setting": "second compound 0.00316 µM", "result": "> 10000", "unit": "nM"}, {"measurement": "IC50", "setting": "second compound 0.01 µM", "result": "> 10000", "unit": "nM"}, {"measurement": "IC50", "setting": "second compound 0.0316 µM", "result": "> 10000", "unit": "nM"}, {"measurement": "IC50", "setting": "second compound 0.1 µM", "result": "> 10000", "unit": "nM"}, {"measurement": "IC50", "setting": "second compound 0.316 µM", "result": "> 10000", "unit": "nM"}, {"measurement": "IC50", "setting": "second compound 1 µM", "result": "> 10000", "unit": "nM"}, {"measurement": "viability, T/C", "setting": "[1]", "result": 103, "unit": "%"}, {"measurement": "viability, T/C", "setting": "[2]", "result": 94.8, "unit": "%"}, {"measurement": "viability, T/C", "setting": "[3]", "result": 97.2, "unit": "%"}, {"measurement": "viability, T/C", "setting": "[4]", "result": 101, "unit": "%"}, {"measurement": "viability, T/C", "setting": "second compound 0.00316 µM, first compound 3.16 µM", "result": 105, "unit": "%"}, {"measurement": "viability, T/C", "setting": "second compound 0.00316 µM, first compound 10 µM", "result": 102, "unit": "%"}, {"measurement": "viability, T/C", "setting": "[5]", "result": 110, "unit": "%"}, {"measurement": "viability, T/C", "setting": "[6]", "result": 94.9, "unit": "%"}, {"measurement": "viability, T/C", "setting": "[7]", "result": 95.5, "unit": "%"}, {"measurement": "viability, T/C", "setting": "[8]", "result": 107, "unit": "%"}, {"measurement": "viability, T/C", "setting": "second compound 0.01 µM, first compound 3.16 µM", "result": 111, "unit": "%"}, {"measurement": "viability, T/C", "setting": "second compound 0.01 µM, first compound 10 µM", "result": 103, "unit": "%"}, {"measurement": "viability, T/C", "setting": "[9]", "result": 93.6, "unit": "%"}, {"measurement": "viability, T/C", "setting": "[10]", "result": 95.3, "unit": "%"}, {"measurement": "viability, T/C", "setting": "[11]", "result": 89.9, "unit": "%"}, {"measurement": "viability, T/C", "setting": "[12]", "result": 99, "unit": "%"}, {"measurement": "viability, T/C", "setting": "second compound 0.0316 µM, first compound 3.16 µM", "result": 95, "unit": "%"}, {"measurement": "viability, T/C", "setting": "second compound 0.0316 µM, first compound 10 µM", "result": 99.6, "unit": "%"}, {"measurement": "viability, T/C", "setting": "[13]", "result": 111, "unit": "%"}, {"measurement": "viability, T/C", "setting": "[14]", "result": 105, "unit": "%"}, {"measurement": "viability, T/C", "setting": "[15]", "result": 100, "unit": "%"}, {"measurement": "viability, T/C", "setting": "[16]", "result": 93.8, "unit": "%"}, {"measurement": "viability, T/C", "setting": "second compound 0.1 µM, first compound 3.16 µM", "result": 104, "unit": "%"}, {"measurement": "viability, T/C", "setting": "second compound 0.1 µM, first compound 10 µM", "result": 91.3, "unit": "%"}, {"measurement": "viability, T/C", "setting": "[17]", "result": 105, "unit": "%"}, {"measurement": "viability, T/C", "setting": "[18]", "result": 109, "unit": "%"}, {"measurement": "viability, T/C", "setting": "[19]", "result": 99.9, "unit": "%"}, {"measurement": "viability, T/C", "setting": "[20]", "result": 105, "unit": "%"}, {"measurement": "viability, T/C", "setting": "second compound 0.316 µM, first compound 3.16 µM", "result": 94, "unit": "%"}, {"measurement": "viability, T/C", "setting": "second compound 0.316 µM, first compound 10 µM", "result": 103, "unit": "%"}, {"measurement": "viability, T/C", "setting": "[21]", "result": 81.9, "unit": "%"}, {"measurement": "viability, T/C", "setting": "[22]", "result": 78, "unit": "%"}, {"measurement": "viability, T/C", "setting": "[23]", "result": 85.4, "unit": "%"}, {"measurement": "viability, T/C", "setting": "[24]", "result": 76.3, "unit": "%"}, {"measurement": "viability, T/C", "setting": "second compound 1 µM, first compound 3.16 µM", "result": 101, "unit": "%"}, {"measurement": "viability, T/C", "setting": "second compound 1 µM, first compound 10 µM", "result": 93.6, "unit": "%"}]}, {"smiles": "COc1c(OCCCN2CCOCC2)ccc2c3n(c(=NC(=O)c4cnc(N)nc4)nc12)CCN3", "note": "+ CNC(C)C(=O)NC1CN(S(=O)(=O)c2cccc(S(=O)(=O)N3CCC4CCC(C(=O)NC(c5ccccc5)c5ccccc5)N4C(=O)C(NC(=O)C(C)NC)C3)c2)CCC2CCC(C(=O)NC(c3ccccc3)c3ccccc3)N2C1=O", "values": [{"measurement": "IC50", "setting": "second compound 0.00316 µM", "result": "> 1000", "unit": "nM"}, {"measurement": "IC50", "setting": "second compound 0.01 µM", "result": "> 1000", "unit": "nM"}, {"measurement": "IC50", "setting": "second compound 0.0316 µM", "result": "> 1000", "unit": "nM"}, {"measurement": "IC50", "setting": "second compound 0.1 µM", "result": "> 1000", "unit": "nM"}, {"measurement": "IC50", "setting": "second compound 0.316 µM", "result": "> 1000", "unit": "nM"}, {"measurement": "IC50", "setting": "second compound 1 µM", "result": 380, "unit": "nM"}, {"measurement": "viability, T/C", "setting": "second compound 0.00316 µM, first compound 0.00316 µM", "result": 100, "unit": "%"}, {"measurement": "viability, T/C", "setting": "second compound 0.00316 µM, first compound 0.01 µM", "result": 95.2, "unit": "%"}, {"measurement": "viability, T/C", "setting": "[1]", "result": 98.9, "unit": "%"}, {"measurement": "viability, T/C", "setting": "[2]", "result": 80.8, "unit": "%"}, {"measurement": "viability, T/C", "setting": "[3]", "result": 72.6, "unit": "%"}, {"measurement": "viability, T/C", "setting": "[4]", "result": 64.7, "unit": "%"}, {"measurement": "viability, T/C", "setting": "second compound 0.01 µM, first compound 0.00316 µM", "result": 102, "unit": "%"}, {"measurement": "viability, T/C", "setting": "second compound 0.01 µM, first compound 0.01 µM", "result": 88.6, "unit": "%"}, {"measurement": "viability, T/C", "setting": "[5]", "result": 99.1, "unit": "%"}, {"measurement": "viability, T/C", "setting": "[6]", "result": 84.5, "unit": "%"}, {"measurement": "viability, T/C", "setting": "[7]", "result": 73.8, "unit": "%"}, {"measurement": "viability, T/C", "setting": "[8]", "result": 63.4, "unit": "%"}, {"measurement": "viability, T/C", "setting": "second compound 0.0316 µM, first compound 0.00316 µM", "result": 93.2, "unit": "%"}, {"measurement": "viability, T/C", "setting": "second compound 0.0316 µM, first compound 0.01 µM", "result": 98.8, "unit": "%"}, {"measurement": "viability, T/C", "setting": "[9]", "result": 92.5, "unit": "%"}, {"measurement": "viability, T/C", "setting": "[10]", "result": 77.4, "unit": "%"}, {"measurement": "viability, T/C", "setting": "[11]", "result": 81.5, "unit": "%"}, {"measurement": "viability, T/C", "setting": "[12]", "result": 71.2, "unit": "%"}, {"measurement": "viability, T/C", "setting": "second compound 0.1 µM, first compound 0.00316 µM", "result": 96.2, "unit": "%"}, {"measurement": "viability, T/C", "setting": "second compound 0.1 µM, first compound 0.01 µM", "result": 109, "unit": "%"}, {"measurement": "viability, T/C", "setting": "[13]", "result": 82.2, "unit": "%"}, {"measurement": "viability, T/C", "setting": "[14]", "result": 78.9, "unit": "%"}, {"measurement": "viability, T/C", "setting": "[15]", "result": 70.5, "unit": "%"}, {"measurement": "viability, T/C", "setting": "[16]", "result": 62.6, "unit": "%"}, {"measurement": "viability, T/C", "setting": "second compound 0.316 µM, first compound 0.00316 µM", "result": 94.9, "unit": "%"}, {"measurement": "viability, T/C", "setting": "second compound 0.316 µM, first compound 0.01 µM", "result": 89, "unit": "%"}, {"measurement": "viability, T/C", "setting": "[17]", "result": 85.1, "unit": "%"}, {"measurement": "viability, T/C", "setting": "[18]", "result": 66.3, "unit": "%"}, {"measurement": "viability, T/C", "setting": "[19]", "result": 61.3, "unit": "%"}, {"measurement": "viability, T/C", "setting": "[20]", "result": 58.6, "unit": "%"}, {"measurement": "viability, T/C", "setting": "second compound 1 µM, first compound 0.00316 µM", "result": 80.8, "unit": "%"}, {"measurement": "viability, T/C", "setting": "second compound 1 µM, first compound 0.01 µM", "result": 74.5, "unit": "%"}, {"measurement": "viability, T/C", "setting": "[21]", "result": 65.6, "unit": "%"}, {"measurement": "viability, T/C", "setting": "[22]", "result": 53.1, "unit": "%"}, {"measurement": "viability, T/C", "setting": "[23]", "result": 53.8, "unit": "%"}, {"measurement": "viability, T/C", "setting": "[24]", "result": 44.8, "unit": "%"}]}]}
